Measured values taken from patent US20210196714A1, “COMPOSITIONS AND METHODS FOR TREATING DISORDERS CHARACTERIZED WITH ABERRANT RAS/MAPK SIGNALING” (Duke University, priority 2018, published 2021).
Entries after “also recorded” stand apart in the source; their conditions may differ.

Key:
ERK2 = ERK2 (Homo sapiens, UniProt P28482); settings: see WO 2002064586; cited from earlier work
[1] = Toxicity test in zebrafish embryos; type: in vivo; settings: zebrafish, in vivo; read-out: LC50 (lethal concentration required to kill 50% of the population)
Experimental: (§1) FIG. 1: In vivo screen using BRAF/MEK/ERK inhibitors. (a) Flow chart of the experimental design. […] For the primary screen, 24 compounds were assessed for their ability to rescue the convergent-extension (CE) phenotype of zebrafish kmt2d morphants, followed by rescue tests of additional phenotypes (jaw and brain) within the kmt2d morphant, or CE of additional genetic KS models. (b) Toxicity results. Twenty embryos at the 8-cell stage were incubated in egg water containing 100 nM, 1 μM, and 10 μM of the 26 compounds. After 24 hours, larvae were scored for toxicity. Black bar: death; grey bar: abnormal morphology; white bar: nontoxic. (c) Embryos were injected with kmt2d-MO at the 2-4 cell stage and soaked in egg water containing 100 nM of each compound at the 8-cell stage. After 24 hours, larvae were scored for CE. […] The efficacy of each compound was determined by a chi-square test in which Class I and Class II were considered together.
(§2) To guard against possible bias, the tool and negative control compounds were interspersed across the experiment and the zebrafish phenotyping team was blinded to the identity of each compound. Typical of small molecule storage, each of the 29 compounds was dissolved in dimethyl sulfoxide (DMSO). […] Next, each compound was diluted serially with egg water and toxicity tested by assaying the percentage of abnormal or dead embryos across three different concentrations (10 μM, 1 μM, 100 nM; FIG. 1B).

zebrafish embryos = experiment: Toxicity test in zebrafish embryos; type: in vivo
Experimental: as §1, §2

kmt2d morphants = experiment: Brain cell proliferation (pHH3 immunostaining) in kmt2d morphants; type: in vivo, zebrafish; settings: 100 nM, 2 dpf, listed as dmDf
Source text: Intellectual disability represents a major phenotype in KS, with some studies reporting almost 90% of patients to be affected (see, Wessels, M. W., et al. Clin Dysmorphol 11, 95-102 (2002)). […] Previous studies have shown that defects in proliferation in the developing zebrafish brain can be a proxy for neurodevelopmental and neurocognitive traits, especially in the context of microcephaly (see, Borck, G. et al. Genome Res 25, 609 (2015); Brooks, S. S. et al. Genetics 198, 723-33 (2014); O'Rawe, J. A. et al. Am J Hum Genet 97, 922-32 (2015); Wortmann, S. B. et al. Am J Hum Genet 96, 245-57 (2015)), a phenotype reported commonly in KS (see, Matsumoto, N. & Niikawa, N. Am J Med Genet C Semin Med Genet 117C, 57-65 (2003)).
(§3) For convergence and extension (CE) phenotyping, embryos were scored as described (see, Leitch, C. C. et al. Nat Genet 40, 443-8 (2008)) at the 8-10 somite stage, and images were captured using an AZ100 microscope and NIS Elements software (Nikon). […] The distance between Meckel's (MK) and ceratohyal (CH) cartilages was measured on ventral bright field images with Image J (NIH). […] Fluorescence signal on embryo heads was imaged with the Nikon AZ100 microscope and DS-Qi1MC digital camera using […] Z-stacks to generate extended depth of focus images. Cell numbers were quantified using the ImageJ ICTN plugin (NIH). […]

[2] = tested on: kmt2d+/−×kmt2d+/− progeny; experiment: Brain cell proliferation in stable kmt2d mutant intercross progeny; type: in vivo, zebrafish; settings: 100 mM dmDf, 2 dpf
Source text: FIG. 12: Treatment with dmDf rescues the defects of stable kmt2d mutant. kmt2d+/− adults were in-crossed and the embryos were then collected at 1 dpf, 2 dpf and 5 dpf to assess dmDf efficacy. […] Error bars show SEM (standard error of the mean).
Although the small molecule testing data in CRISPR F0 mosaic models are consistent with morphant phenotypes (and rescue), experiments recognized the necessity of testing the potential efficacy of dmDf in a stable genetic model that is a better genotypic proxy to human patients. […] In addition to examining proliferation of cells in the brain, experiments assessed whether neural differentiation is affected (see, Van Laarhoven, P. M. et al. Hum Mol Genet 24, 4443-53 (2015)).
as §3

[3] = tested on: zebrafish kmt2d morphants; experiment: Rescue of convergent-extension (CE) phenotype in kmt2d morphants; type: in vivo; settings: dose response

ERK2, sequence (P28482 whole entry, species assumed): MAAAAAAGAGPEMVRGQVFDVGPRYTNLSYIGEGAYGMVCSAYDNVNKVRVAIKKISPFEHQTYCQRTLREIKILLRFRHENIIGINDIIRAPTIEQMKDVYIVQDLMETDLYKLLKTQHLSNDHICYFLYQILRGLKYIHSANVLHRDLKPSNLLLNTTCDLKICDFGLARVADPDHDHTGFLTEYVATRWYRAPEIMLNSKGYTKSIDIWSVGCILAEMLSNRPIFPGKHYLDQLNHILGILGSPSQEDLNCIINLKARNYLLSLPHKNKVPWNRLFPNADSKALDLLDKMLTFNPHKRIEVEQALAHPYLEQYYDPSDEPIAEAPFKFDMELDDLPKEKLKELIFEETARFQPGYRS

## CC[C@@H](CO)Nc1ncc(C)c(-c2c[nH]c(C(=O)N[C@H](CO)c3cccc(Cl)c3)c2)n1 [Compound 2, N-((S)-1-(3-chlorophenyl)-2-hydroxyethyl)-4-(2-(((S)-1-hydroxybutan-2-yl)amino)-5-methylpyrimidin-4-yl)-1H-pyrrole-2-carboxamide]
ERK2
  ERK2 inhibitor potency: potent

## CC(C)c1nc(-c2cccc(NS(=O)(=O)c3c(F)cccc3F)c2F)c(-c2ccnc(N)n2)s1 [Compound 8, desmethyl-Dabrafenib]
[1]
  LC50 at 24 h: 1 to 10 µM
Zebrafish embryos; 100 nM or 500 nM
  toxicity at the concentrations used for pMEK test: lack of toxicity
Zebrafish embryos; 100 nM, 24 hours
  toxicity: pathology (abnormal or dead embryos): safe
Zebrafish embryos; LC50 vs 0.26 nM exposure
  LC50 relative to effective in vivo exposure (greater by): four
Zebrafish embryos; zebrafish, in vivo
  overt pathologies in zebrafish embryos: induced no overt pathologies
kmt2d morphants
  total number of proliferating (pHH3+) cells in brain: significantly increases pHH3+ proliferating cells; also recorded: restored the total number of proliferating cells to wild type levels
[2]
  number of proliferating cells in the brain: increases significantly; also recorded: rescued
[3]; 50 and 100 nM
  CE defects at 50 nM and 100 nM doses: Significant rescue
[3]; above 100 nM up to 1 μM
  CE rescue at dosages beyond 100 nM: higher dosages did not improve efficacy any further
